Data on 14 compounds can be found in patent publication US5539132A, “Cerulenin compounds for fatty acid synthesis inhibition” (Johns Hopkins University, priority 1994, dated 1996).

Data set [1] addresses T1, FAS (fatty acid synthase), Yeast (Saccharomyces cerevisiae, UniProt P19097).
T1 construct: Yeast extracts were prepared from freeze-dried yeast; endogenous in cells; host or cells: freeze-dried Saccharomyces cerevisiae (crude glass-bead extract, dialyzed)
In words: FAS enzymatic assay, crude yeast extract (NADPH oxidation). Format: biochemical. The conditions noted are these: 30 min incubation at 10°-25° C., read-out: IC50 for inhibition of FAS activity, Yeast. The method, then: Preparation of crude cell extracts: The potential of compounds to inhibit FAS enzymatic activity was determined using a crude cell extract of a cancer cell line or Saccharomyces cerevisiae. The breast cancer cell line ZR-75-1 was grown to confluence in RPMI with 10$FBS. The cells were harvested by scraping, washed once with cold phosphate buffered saline pH 7.5 and stored at -80° C. Extracts were prepared by thawing the cells in the presence of 4 vol. of 25 mM potassium phosphate pH 7.5, 1 mM EDTA, 1 mM DTT, 0.4% digitonin, 0.7 μg/ml pepstatin, 2 μg/ml aprotinin and 0.5 μg/ml leupeptin. Cells were homogenized with a Dounce type homogenizer for 20 strokes. Extracts were cleared by two sequential centrifugations at 30,000 xg, for 30 min each. […]
Testing of compound activity: Compounds were tested for their ability to inhibit FAS enzymatic activity by incubating the compounds with the crude cell extracts and measuring residual FAS activity. […] Residual FAS activity was measured as described below. […]
Enzymatic assay conditions: The FAS enzyme activity was measured by monitoring the oxidation of NADPH spectrophotometrically (Dils, R. and E. M. Carey, 1975, Fatty acid synthase from rabbit mammary gland. Methods in Enzymol. 35:74-83). […] The initial rate of NADPH oxidation at 25° C. was measured by monitoring the decrease in absorbance at 340 nm.

Data set [2] relates to bacteria, actinomycetes, and mycobacteria. The settings on record: cited from earlier work.
The target in data set [3] is T2, FAS (fatty acid synthase), Cancer (Homo sapiens, UniProt P49327).
T2 construct: using a crude cell extract of a cancer cell line or Saccharomyces cerevisiae; endogenous in cells; host or cells: ZR-75-1 breast cancer cell line (crude dialyzed digitonin extract)
The data set can be described thus: FAS enzymatic assay, crude extract of breast cancer cell line ZR-75-1 (NADPH oxidation). The format is biochemical. The settings on record: ZR-75-1 crude cell extract, 30 min incubation at 10°-25° C.; read-out: IC50 for inhibition of FAS activity, Cancer. The method, then:
Preparation of crude cell extracts: The potential of compounds to inhibit FAS enzymatic activity was determined using a crude cell extract of a cancer cell line or Saccharomyces cerevisiae. The breast cancer cell line ZR-75-1 was grown to confluence in RPMI with 10$FBS. The cells were harvested by scraping, washed once with cold phosphate buffered saline pH 7.5 and stored at -80° C. Extracts were prepared by thawing the cells in the presence of 4 vol. of 25 mM potassium phosphate pH 7.5, 1 mM EDTA, 1 mM DTT, 0.4% digitonin, 0.7 μg/ml pepstatin, 2 μg/ml aprotinin and 0.5 μg/ml leupeptin. Cells were homogenized with a Dounce type homogenizer for 20 strokes. Extracts were cleared by two sequential centrifugations at 30,000 xg, for 30 min each. The extract was dialyzed against 125 mM potassium phosphate pH 6.6, 1 mM EDTA, 1 mM DTT using a 100,000 molecular weight cut off membrane. The extract stored at 4° C. with 3 mM sodium azide. Yeast extracts were prepared from freeze-dried yeast. Yeast were reconstituted in 5 vol/g 100 mM potassium phosphate pH 6.5. Cells were harvested by centrifugation at 3,000 xg for 10 min. Cells were washed with 5 vol 100 mM potassium phosphate pH 6.5 and suspended in 2 vol. 125 mM potassium phosphate pH 6.6, 1 mM EDTA, 1 mM DTT, 0.7 μg/ml pepstatin, 2 μg/ml aprotinin and 0.5 μg/ml leupeptin. Sterile 0.5 mm glass beads were added (1/2 vol) and the mixture vortex vigorously for four 30 s intervals with 30 s rests on ice between mixes. Extracts were cleared by centrifugation and dialyzed as described above.
Testing of compound activity: Compounds were tested for their ability to inhibit FAS enzymatic activity by incubating the compounds with the crude cell extracts and measuring residual FAS activity. The compounds were mixed with a crude cell extract to the desired concentration and the mixture incubated at 10°-25° C. for 30 min. Residual FAS activity was measured as described below. The concentration of compound giving 50% maximal activity defined the IC50 which was calculated from a 4-parameter equation of the dose-response curves.
Enzymatic assay conditions: The FAS enzyme activity was measured by monitoring the oxidation of NADPH spectrophotometrically (Dils, R. and E. M. Carey, 1975, Fatty acid synthase from rabbit mammary gland. Methods in Enzymol. 35:74-83). A 50 μl portion of an extract or extract-compound mixture was mixed with 50 μl 250 mM potassium phosphate pH 6.6, 40 μM acetyl-CoA, 200 μM malonyl-CoA, 1 mM NADPH and 2 mM DTT. The initial rate of NADPH oxidation at 25° C. was measured by monitoring the decrease in absorbance at 340 nm.

Data set [4] deals with HIV protease. The settings on record: cited from earlier work.
Data set [5] relates to HS 27 cells. The data set can be described thus: Growth inhibition assay, HS 27 cells (crystal violet). The format is cell-based. The settings on record: Homo sapiens, HS27, 72 h; 3 days with compound. Here is the method: (§1) Cells were seeded at 5×10^3 per well into 96-well plates and incubated for 3 days in RPMI, 10% FBS at 37° C. in a 5% CO2 :95% air atmosphere. Medium was removed and replaced with media plus compound. Compound doses were 10 serial dilutions from 200 μg/ml to 0.39 μg/ml. Cells were returned to the incubator for 3 additional days. The medium was removed and plates were washed twice with phosphate buffered saline. Wells were filled with 100 μl of 0.2% crystal violet in 2% ethanol for 10 min. Stain was removed from the wells and the plates were washed 3 times with distilled H2 O. After at least 4 h of drying wells were filled with 100 μl of 1% SDS and plates were shaken to disolve any dye crystals. Absorbance at 560 nm minus 650 nm in each well was measured using a Molecular Devices plate reader. IC50 values were calculated from 4-parameter curve-fits of the dose-response curves.

Data set [6] relates to mammary, colon, and prostatic carcinoma lines. The settings on record: U.S. Ser. No. 08/096,908 and its CIP; cited from earlier work.
The test system of data set [7] is myristoylation of proteins. The settings on record: cited from earlier work.
The subject of data set [8] is SKBr 3 cells. In words: Growth inhibition assay, SKBr 3 cells (crystal violet). The conditions noted are these: Homo sapiens, SK-BR-3, 72 h; 3 days with compound. Format: cell-based. The method, then:
as §1

Data set [9] relates to fatty acid synthase. The conditions noted are these: cited from earlier work.
Data set [10] concerns Mycobacterium tuberculosis. The conditions noted are these: cited from earlier work.
The test system of data set [11] is Candida albicans. The data set can be described thus: Control organism susceptibility, Candida albicans. The format is cell-based. The settings on record: read-out: MIC (control organism).
Data set [12] concerns M. tuberculosis. In words: Radiometric (Bactec) susceptibility test, M. tuberculosis. The format is cell-based. The settings on record: Mycobacterium tuberculosis.
Data set [13] deals with fatty acid synthase expression in MCF-7 cells. The conditions noted are these: Northern analysis; cited from earlier work.
For data set [14], the system named is panel of cell lines with varying levels of FAS enzyme activity. The data set can be described thus: Anti-proliferative effect on a panel of cell lines with varying levels of FAS. The format is cell-based.
Data set [15] relates to acyl CoA-synthetase. The conditions noted are these: for long-chain fatty acids; cited from earlier work.
The test system of data set [16] is Hela cells. The conditions noted are these: cited from earlier work.
Data set [17] has as its system Vero cells. The conditions noted are these: cited from earlier work.
For data set [18], the system named is Raji cells. The settings on record: cited from earlier work.
The target in data set [19] is rat liver acyl-CoA synthetase. The settings on record: read-out: concentration causing 50% inhibition of acyl-CoA synthetase; cited from earlier work.

One may read the MIC as the least concentration at which growth counts as inhibited.

Converted amounts (≈) assume the structure as drawn.

T2 sequence (P49327 whole entry): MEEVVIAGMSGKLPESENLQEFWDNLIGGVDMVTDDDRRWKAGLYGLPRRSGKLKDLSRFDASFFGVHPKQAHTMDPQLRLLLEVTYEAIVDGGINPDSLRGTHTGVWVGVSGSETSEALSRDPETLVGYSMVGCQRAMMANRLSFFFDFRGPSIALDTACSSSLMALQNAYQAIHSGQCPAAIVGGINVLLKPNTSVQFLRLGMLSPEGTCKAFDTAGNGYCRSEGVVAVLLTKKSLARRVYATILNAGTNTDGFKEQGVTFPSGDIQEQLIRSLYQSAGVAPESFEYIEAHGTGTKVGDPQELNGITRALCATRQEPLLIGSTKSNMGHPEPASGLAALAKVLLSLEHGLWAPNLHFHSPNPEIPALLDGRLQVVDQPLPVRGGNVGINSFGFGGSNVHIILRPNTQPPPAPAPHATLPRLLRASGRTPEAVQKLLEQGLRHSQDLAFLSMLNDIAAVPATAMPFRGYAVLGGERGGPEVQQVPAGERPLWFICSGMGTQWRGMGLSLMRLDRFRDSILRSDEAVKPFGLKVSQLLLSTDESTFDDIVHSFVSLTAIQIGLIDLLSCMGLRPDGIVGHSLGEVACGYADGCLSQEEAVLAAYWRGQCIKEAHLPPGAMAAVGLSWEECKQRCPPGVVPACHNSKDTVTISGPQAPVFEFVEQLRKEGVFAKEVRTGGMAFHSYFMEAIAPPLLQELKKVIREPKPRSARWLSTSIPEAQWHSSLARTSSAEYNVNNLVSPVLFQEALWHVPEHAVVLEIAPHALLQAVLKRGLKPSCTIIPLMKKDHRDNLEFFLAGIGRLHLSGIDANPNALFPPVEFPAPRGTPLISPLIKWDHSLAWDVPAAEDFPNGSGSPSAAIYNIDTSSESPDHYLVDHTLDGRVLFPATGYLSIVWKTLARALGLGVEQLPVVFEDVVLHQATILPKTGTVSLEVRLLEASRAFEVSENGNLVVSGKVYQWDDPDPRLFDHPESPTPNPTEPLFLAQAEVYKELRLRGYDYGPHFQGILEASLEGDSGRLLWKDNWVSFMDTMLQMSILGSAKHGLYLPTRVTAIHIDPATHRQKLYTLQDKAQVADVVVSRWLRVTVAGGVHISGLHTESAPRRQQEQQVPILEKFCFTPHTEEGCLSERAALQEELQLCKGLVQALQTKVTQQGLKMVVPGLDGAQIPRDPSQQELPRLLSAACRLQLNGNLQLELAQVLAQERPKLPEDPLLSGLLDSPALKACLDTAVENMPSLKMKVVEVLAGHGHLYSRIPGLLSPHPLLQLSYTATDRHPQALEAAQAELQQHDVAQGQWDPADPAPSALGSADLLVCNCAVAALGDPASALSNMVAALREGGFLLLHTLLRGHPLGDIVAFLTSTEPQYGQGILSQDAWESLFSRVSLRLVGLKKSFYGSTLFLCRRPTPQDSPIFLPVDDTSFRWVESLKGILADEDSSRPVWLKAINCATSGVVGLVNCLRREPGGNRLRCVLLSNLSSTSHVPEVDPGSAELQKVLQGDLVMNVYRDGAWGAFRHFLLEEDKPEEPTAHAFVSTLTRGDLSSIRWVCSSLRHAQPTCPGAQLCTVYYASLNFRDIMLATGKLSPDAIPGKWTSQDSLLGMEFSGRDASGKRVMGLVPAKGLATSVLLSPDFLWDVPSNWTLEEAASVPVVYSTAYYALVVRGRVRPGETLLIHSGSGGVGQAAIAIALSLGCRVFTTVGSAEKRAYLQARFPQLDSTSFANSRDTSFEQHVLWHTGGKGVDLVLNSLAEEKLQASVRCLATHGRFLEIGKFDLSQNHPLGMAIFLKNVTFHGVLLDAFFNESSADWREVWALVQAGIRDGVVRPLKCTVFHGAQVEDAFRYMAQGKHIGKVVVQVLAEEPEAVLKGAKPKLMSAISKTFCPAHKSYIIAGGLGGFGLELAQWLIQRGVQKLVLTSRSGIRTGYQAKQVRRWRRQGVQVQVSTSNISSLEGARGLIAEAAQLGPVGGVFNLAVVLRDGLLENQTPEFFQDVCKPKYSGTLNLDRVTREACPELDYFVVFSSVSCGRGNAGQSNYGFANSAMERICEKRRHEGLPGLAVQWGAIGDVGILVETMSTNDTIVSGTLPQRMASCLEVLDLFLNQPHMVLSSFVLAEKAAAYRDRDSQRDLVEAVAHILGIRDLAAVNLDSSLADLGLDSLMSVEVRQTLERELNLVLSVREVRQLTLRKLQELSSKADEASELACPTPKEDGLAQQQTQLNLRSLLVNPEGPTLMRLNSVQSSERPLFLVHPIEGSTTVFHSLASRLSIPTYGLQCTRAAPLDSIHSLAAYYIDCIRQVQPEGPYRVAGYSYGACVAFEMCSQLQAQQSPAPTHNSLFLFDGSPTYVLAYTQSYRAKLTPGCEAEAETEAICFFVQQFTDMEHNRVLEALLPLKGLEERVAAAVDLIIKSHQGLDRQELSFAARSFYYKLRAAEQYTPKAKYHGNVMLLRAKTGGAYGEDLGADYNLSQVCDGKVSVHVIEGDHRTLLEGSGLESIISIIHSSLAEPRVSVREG

For `C/C=C/C/C=C/CCC(=O)[C@H]1O[C@H]1C(N)=O` [CTC002, (2S) (3R) 2,3-epoxy-4-oxo-7,10 dodecadienoyl amide], the IC50 in data set [1] came to 0.4 µM; in [3], 8.6 µM; in data set [5], 20 µM; in [8], 20 µM. In addition, in data set [2], the “in vitro activity against some bacteria, actinomycetes, and mycobacteria” value was “some in vitro activity”. In addition, in data set [4], the “inhibition of viral HIV protease, concentration” value is 5 mg/mL. Further, the “growth inhibition of carcinoma lines” value in data set [6] is recorded as “potently inhibit the growth”. For the same compound, in [7], the “inhibition of myristoylation of proteins” value is “does not specifically inhibit”. Besides, the “type of inhibition of fatty acid synthase” value in data set [9] is “specific and non-competitive inhibitor”. Further, the “in vitro activity against Mycobacterium tuberculosis” value in [10] is listed as “no activity”. Further, the MIC in data set [11] is below 1.5 µg/mL.
In the case of `Cc1cccc(/C=C/CCC2C=CC(=O)O2)c1` (centres unmarked) [CTC003], the IC50 was above 100 µM in data set [3], above 50 µM in [5] and above 50 µM in data set [8].
For the compound `Cc1cccc(/C=C/CCC(O)C2OC2C(N)=O)c1` (centres unmarked) [CTC004], the IC50 in data set [3] was above 100 µM; in [5], above 50 µM; in data set [8] it was above 50 µM.
Regarding `Cc1cccc(/C=C/CCCN2C(=O)C=CC2=O)c1` [CTC005], the results for the IC50 in data set [3], in data set [5] and in data set [8] were above 78 µM, above 50 µM and above 50 µM, respectively.
In the case of `Cc1cccc(/C=C/CCC(=O)C2OC2C(N)=O)c1` (centres unmarked) [CTC006], the IC50 came out at 82 µM in data set [1], 10.4 µM in data set [3], 32 µM in data set [5] and 21 µM in [8]. The same compound had an MIC in data set [12] of 25 µg/mL (≈ 96.4 µM).
Consider `C/C=C/C/C=C/CCN1C(=O)C=CC1=O` [CTC013], for which the IC50 in [3] is above 97 µM; in data set [5], 63 µM; in [8] it was 63 µM.
Consider `C/C=C/C/C=C/CCCN1C(=O)C=CC1=O` [CTC014], for which the IC50 in data set [3] is above 92 µM; in [5] it was above 50 µM; in data set [8] it was above 50 µM.
As for `N[C@@H](Cc1cc(I)c(Oc2ccc(O)c(I)c2)c(I)c1)C(=O)O` [T3, reference compound], the “effect on fatty acid synthase expression” value in data set [13] is listed as “no effect”.
`CCCCCCCCCCCCCCOc1ccc(C(=O)O)o1` [TOFA]: in [14], the anti-proliferative effect entry was “anti-proliferative effect”.
In the case of `CCCCCC/C=C/C=C/C=N/NN=O` [Triacsin A], in data set [15], the “mechanism of inhibition of acyl CoA-synthetase” value is “competitive”.
On to `CCC/C=C/C/C=C/C=C/C=NN=NO` [Triacsin C, 1-hydroxy-3-(E, E, E-2',4',7'-undecatrienylidine) triazene], for which the “growth inhibition of Hela cells” value in [16] was “inhibit growth”. For the same compound, the “growth inhibition of Vero cells” value in data set [17] was “inhibit growth”. The “growth inhibition, concentration” value in data set [18] is 1.0 µM. Further, the IC50 in data set [19] was 8.7 µM.
With `CC(=O)[C@H]1CC[C@H]2[C@@H]3CCC4=CC(=O)CC[C@]4(C)[C@H]3CC[C@]12C` [progesterone, reference compound], the “increase in fatty acid synthase expression” value in [13] was 5-10 fold.
Take “insulin growth factor-1: insulin growth factor-1”: in [13], the “effect on fatty acid synthase expression” value was “only slightly stimulatory”.
On to insulin: insulin, for which the “effect on fatty acid synthase expression” value in data set [13] is on record as “only slightly stimulatory”.
